According to patent US20250186489A1, “REPROGRAMMING OF CELLS TO TYPE 1 CONVENTIONAL DENDRITIC CELLS OR ANTIGEN-PRESENTING CELLS” (Asgard Therapeutics AB, priority 2021, published 2025):
Blank lines part the entries; values can stand above or below the molecule they belong to.

How the values were obtained:
B16-OVA cells = experiment: T cell killing assay of B16-OVA target cells; assay type: cell-based, mouse; conditions: low (1:1) T cell to target ratio, 3 days co-culture
Experimental: CD8^+ T cells from spleen of OT-I mice were enriched using a mouse CD8^+ T cell isolation kit (Miltenyi) according to manufacturer's protocol. 6-well untreated plates were coated with anti-CD3 and anti-CD28 at 2×10^−3 mg mL^−1 for 2 h at 37° C. and washed 3× before 1×10^6 T cells per mL were seeded in complete growth media (RPMI) supplemented with murine IL-2 (Peprotech, 100 U mL-1) and murine IL-12p70 (Peprotech, 2.5×10−3 mg mL-1). After 24 h of activation, T cells were re-seeded at 1×10^6 cells per mL in fresh complete RPMI supplemented with murine IL-2 for 48 h on new untreated plates to allow T cell expansion. MACS-sorted reprogrammed mOrange^+ B16-OVA cells or IFN-γ treated cells were seeded with non-fluorescent B16-OVA (mOrange−) in equal numbers, 24 h before co-culture with T cells. Expanded T cells were added in ratios of 0:1, 1:1, 5:1, 10:1 T cell to target cell. […] For flow cytometry analysis, cells were resuspended and stained for viability (DAPI) and anti-CD3 and measured at indicated time points post co-culture with T cells.

[1] = system: human embryonic fibroblasts (HEF); experiment: cDC1 reprogramming efficiency of human embryonic fibroblasts, flow cytometry for CD45+HLA-DR+ cells at day 9; assay type: cell-based; conditions: HEF with Dox-inducible PIB
Experimental: HEFs, HDFs and Clec9a-tdTomato MEFs were seeded at a density of 40,000 cells per well and MSCs at a density of 50,000 cells per well on 0.1% gelatin coated 6-well plates. On the following day, cells were incubated overnight with either a ratio of 1:1 TetO-PIB and M2rtTA, SFFV-PIB-GFP or SFFV-GFP lentiviral particles in media supplemented with 8 μg/ml polybrene. Cells were transduced overnight twice in consecutive days and media replaced in between. After the second transduction, media was replaced by normal growth media (day 0). When using TetO-PIB, media was supplemented with Dox (1 μg/ml). Media was changed every 2-3 days for the duration of cultures. When stated, media was supplemented with LPS (100 ng/ml, Enzo), Poly I:C (25 μg/ml, InvivoGen) and R848 (3 μg/ml, InvivoGen) overnight. Cytokines were added at day 2 and kept for the duration of cultures; For reprogramming in xeno-free conditions, MSCs were cultured in X-Vivo 15 (Lonza) after transduction and media changed every 2-3 days for the duration of cultures.
For the analysis of surface marker expression, human and mouse cells were dissociated and incubated with antibodies diluted in PBS 5% FBS at 4° C. for 30 minutes in the presence of mouse or rat serum (1/100, GeneTex), for human and mouse cells respectively, to block unspecific binding. Cells were washed and resuspended in PBS 5% FBS and analyzed in BD FACSCanto II or BD LSRFortessa flow cytometers (BD Biosciences), unless stated otherwise. DAPI was used for dead cell exclusion. Flow cytometry data were analyzed using FlowJo software (FLOWJO, LLC, version 10.6.1). All flow cytometry analyses were performed in live single cell gates.
Coding regions of ID2, TXNIP, ZFP36, PLEK, SUB1, JUNB, CREM, KLF4, MXD1, LITAF, IRF7, FOS, NMI, TFEC, SP110, IRF5, STAT2, BATF, ZNF267, IRF1, RELB and BATF2 were individually cloned in the pFUW-TetO plasmid. […] Reprogramming efficiency was evaluated by flow cytometry in HEFs 9 days after transcription factor overexpression.
17 human hematopoietic cytokines including inflammatory mediators (Table 3) were individually added to the culture media 2 days after PIB induction in HEFs, and reprogramming efficiency was measured at day 9. Changes in reprogramming efficiency were analysed using both single cytokines and combinations of two or three cytokines.
The impact on reprogramming efficiency after a combination of cytokine treatment and SFFV-driven PIB induction was evaluated. The scPred system was used for integration with “natural” DCs. See previous Examples for experimental details.

human cancer cell lines = experiment: Effect of valproic acid on cDC1 reprogramming of human cancer cell lines; assay type: cell-based; conditions: VPA from day 1 to day 4, day 9
Experimental: (§1) Cancer cell lines were transduced with PIB-IRES-EGFP lentiviral particles or EGFP as control, and cultured in the presence or absence of VPA from reprogramming day 1 to day 4, and reprogramming efficiency was quantified by flow cytometry at reprogramming day 9 in live EGFP^+ cells according to the surface expression of CD45^+ and MHC-II or HLA-DR. Reprogrammed cells were then analysed as previously described.

LLC and B16 cells = experiment: Effect of valproic acid on reprogramming of mouse cancer cells; assay type: cell-based; conditions: for fold enhancement of CD45^+ MHC-II^+ tumour-APC generation: SFFV-PIB-eGFP; for fold enhancement of CD45^+ MHC-II^+ tumour-APC generation / CD45^+ MHC-II^+ tumour-APCs: day 9
Experimental: as §1

chromatin = experiment: ChIP-seq of PU.1, IRF8 and BATF3 in HDFs 48 h after induction; assay type: binding, human; conditions: for chromatin binding, number of peaks: factors co-expressed, HDFs, 48 h; for positions shared between the three factors as share of total peaks of the factor: factors expressed together
Experimental: TFs were delivered with a polycistronic lentiviral vector (pFUW-tetO-PIB) or individual vectors (pFUW-tetO-PU.1, pFUW-tetO-IRF8, or pFUW-tetO-BATF3) with pFUW-M2rtTA. ChIP was performed 48 hours after the addition of Dox.
Chromatin in cultured cells was fixed by adding 1/10 volume of freshly-prepared formaldehyde solution [11% Formaldehyde (Sigma), 0.1M NaCl, 1 mM EDTA and 50 mM HEPES] to each cell suspension in complete DMEM. Tubes were left 15 minutes at room temperature with agitation. Fixation was stopped by adding 1/20 volume of […] Glycine solution (Sigma). After 5 minutes incubation, cells were centrifuged at 800 g for 10 min at 4° C. Cell pellets were resuspended in 10 ml chilled PBS-Igepal, 100 μl PMSF were added to each tube and centrifuged at 800 g for 10 minutes at 4° C. Cell pellets were snap-frozen on dry ice and stored at −80° C. Active Motif (Carlsbad, CA) prepared chromatin, performed ChIP, generated libraries and sequenced libraries. Briefly, chromatin was isolated by adding lysis buffer, followed by disruption with a Dounce homogenizer. Lysates were sonicated and the DNA sheared to an average length of 300-500 bp (Active Motif's EpiShear probe sonicator). Genomic DNA (Input) was prepared by treating aliquots of chromatin with RNase, proteinase K and heat for de-crosslinking, followed by clean up using solid phase reversible immobilization (SPRI) beads (Beckman Coulter) and quantitation by Clariostar (BMG Labtech). Extrapolation to the original chromatin volume allowed determination of total chromatin yield. 30 μg of chromatin was pre-cleared with protein A/G agarose beads (Invitrogen). Immunoprecipitations were performed with 4 μg of antibodies against human PU.1, IRF8 and BATF3 (rabbit anti-human PU.1, rabbit anti-human IRF8 or sheep anti-human BATF3). […] To confirm ChIP enrichment, quantitative PCR (QPCR) reactions were carried out in triplicate on specific genomic regions using SYBR Green Supermix (Bio-Rad). […] After a final PCR amplification step, the resulting DNA libraries were quantified and sequenced on Illumina's NextSeq 500 (75 nt reads, single end).
ChIP-seq analysis was performed on the raw FASTQ files. […] For genome tracks, bigwig files were created from bam files with deeptools (https://deeptools.readthedocs.io/en/develop/) and explored using the UCSC Genome Browser. For Chromatin State Fold-Enrichment analysis, enrichment scores for genomic features, such as PU.1, IRF8 and BATF3 ChIP-seq peaks and histone marks were calculated using ChromHMM Overlap Enrichment (http://compbio.mit.edu/ChromHMM/). […] Enrichment scores were calculated as the ratio between the observed and the expected overlap for each feature and chromatin state based on their sizes and the size of the human genome. […]

Molecule: IFN-γ: cytokine
target cells killed by T cells (B16-OVA cells): 12.31±7.1%
fold increase in reprogramming efficiency versus condition without cytokines [1]: 20 fold
CD45^+ HLA-DR^+ cell generation (hiDCs) ([1]; cytokine added 2 days after induction, 0.4%±0.2% without cytokines): 7.9%±2.2%

Molecule: CCCC(CCC)C(=O)O [VPA, valproic acid]
reprogramming efficiency in human cancer cells (human cancer cell lines): increased reprogramming efficiency in all tested lines
fold enhancement of CD45^+ MHC-II^+ tumour-APC generation (LLC and B16 cells; B16 cells): ~5 fold
CD45^+ MHC-II^+ tumour-APCs (LLC and B16 cells; B16 cells, 5.9±4.8% without VPA): 29.9±19.3%
MHC-I in transduced cells (LLC and B16 cells; LLC and B16 cells transduced with PIB): upregulate MHC-I
fold enhancement of CD45^+ MHC-II^+ tumour-APC generation (LLC and B16 cells; LLC cells): ~3 fold
CD45^+ MHC-II^+ tumour-APCs (LLC and B16 cells; LLC cells, 15.8±4.79% without VPA): 45.9±25.5%
antigen presentation function of tumour-APCs generated in the presence of VPA (LLC and B16 cells; LLC-OVA and B16-OVA cells, OT-I CD8^+ T cells): presented endogenous antigens to OT-I CD8^+ T cells

chromatin binding, number of peaks (chromatin): 11,505 peaks
B1: BATF3: nuclear basic leucine zipper transcription factor, SEQ ID NO: 10 (protein, listed as Homo sapiens)
chain: MSQGLPAAGSVLQRSVAAPGNQPQPQPQQQSPEDDDRKVRRREKNRVAAQRSRKQTQKADKLHEEYESLEQENTMLRREIGKLTEELKHLTEALKEHEKMCPLLLCPMNFVPVPPRPDPVAGCLPR
modifications: Human BATF3 (protein sequence)
positions shared between the three factors as share of total peaks of the factor (chromatin): 47%

chromatin binding, number of peaks (chromatin): 18,962 peaks
B2: IRF8: transcription factor of the interferon regulatory factor family, SEQ ID NO: 11 (protein, listed as Homo sapiens)
chain: MCDRNGGRRLRQWLIEQIDSSMYPGLIWENEEKSMFRIPWKHAGKQDYNQEVDASIFKAWAVFKGKFKEGDKAEPATWKTRLRCALNKSPDFEEVTDRSQLDISEPYKVYRIVPEEEQKCKLGVATAGCVNEVTEMECGRSEIDELIKEPSVDDYMGMIKRSPSPPEACRSQLLPDWWAQQPSTGVPLVTGYTTYDAHHSAFSQMVISFYYGGKLVGQATTTCPEGCRLSLSQPGLPGTKLYGPEGLELVRFPPADAIPSERQRQVTRKLFGHLERGVLLHSSRQGVFVKRLCQGRVFCSGNAVVCKGRPNKLERDEVVVFDTSQFFRELQQFYNSQGRLPDGRVVLCFGEEFPDMAPLRSKLILVQIEQLYVRQLAEEAGKSCGAGSVMQAPEEPPPDQVFRMFPDICASHQRSFFRENQQITV
modifications: Human IRF8 isoform 1 (protein sequence)
positions shared between the three factors as share of total peaks of the factor (chromatin): 28%
